Like-named read-outs stand apart in the source and are kept apart here. Each block holds one compound with its values, some of them ahead of it.
What was measured:
Assay in all cases: biochemical
Parameters in all cases: species or system human cell line lysate
[1] = biological target: Bone morphogenetic protein receptor type-1A ; BMPR1A ; P36894 (Homo sapiens, UniProt P36894)
[2] = biological target: Isoform 2 of Tyrosine-protein kinase Lyn ; LYN ; P07948-2 (Homo sapiens, UniProt P07948)
[3] = biological target: Isoform GRK6B of G protein-coupled receptor kinase 6 ; GRK6 ; P43250-2 (Homo sapiens, UniProt P43250)
[4] = biological target: Mitogen-activated protein kinase 1 ; MAPK1 ; P28482 (Homo sapiens, UniProt P28482)
[5] = biological target: Isoform 3 of Mitogen-activated protein kinase 8 ; MAPK8 ; P45983-3 (Homo sapiens, UniProt P45983)
[6] = biological target: TGF-beta receptor type-1 ; TGFBR1 ; P36897 (Homo sapiens, UniProt P36897)
[7] = biological target: Inositol polyphosphate multikinase ; IPMK ; Q8NFU5 (Homo sapiens, UniProt Q8NFU5)
[8] = biological target: MAP/microtubule affinity-regulating kinase 3 ; MARK3 ; P27448 (Homo sapiens, UniProt P27448)
[9] = biological target: T1, Ephrin type-B receptor 2 ; EPHB2 ; P29323 (Homo sapiens, UniProt P29323)
T1 sequence (P29323 1-1055): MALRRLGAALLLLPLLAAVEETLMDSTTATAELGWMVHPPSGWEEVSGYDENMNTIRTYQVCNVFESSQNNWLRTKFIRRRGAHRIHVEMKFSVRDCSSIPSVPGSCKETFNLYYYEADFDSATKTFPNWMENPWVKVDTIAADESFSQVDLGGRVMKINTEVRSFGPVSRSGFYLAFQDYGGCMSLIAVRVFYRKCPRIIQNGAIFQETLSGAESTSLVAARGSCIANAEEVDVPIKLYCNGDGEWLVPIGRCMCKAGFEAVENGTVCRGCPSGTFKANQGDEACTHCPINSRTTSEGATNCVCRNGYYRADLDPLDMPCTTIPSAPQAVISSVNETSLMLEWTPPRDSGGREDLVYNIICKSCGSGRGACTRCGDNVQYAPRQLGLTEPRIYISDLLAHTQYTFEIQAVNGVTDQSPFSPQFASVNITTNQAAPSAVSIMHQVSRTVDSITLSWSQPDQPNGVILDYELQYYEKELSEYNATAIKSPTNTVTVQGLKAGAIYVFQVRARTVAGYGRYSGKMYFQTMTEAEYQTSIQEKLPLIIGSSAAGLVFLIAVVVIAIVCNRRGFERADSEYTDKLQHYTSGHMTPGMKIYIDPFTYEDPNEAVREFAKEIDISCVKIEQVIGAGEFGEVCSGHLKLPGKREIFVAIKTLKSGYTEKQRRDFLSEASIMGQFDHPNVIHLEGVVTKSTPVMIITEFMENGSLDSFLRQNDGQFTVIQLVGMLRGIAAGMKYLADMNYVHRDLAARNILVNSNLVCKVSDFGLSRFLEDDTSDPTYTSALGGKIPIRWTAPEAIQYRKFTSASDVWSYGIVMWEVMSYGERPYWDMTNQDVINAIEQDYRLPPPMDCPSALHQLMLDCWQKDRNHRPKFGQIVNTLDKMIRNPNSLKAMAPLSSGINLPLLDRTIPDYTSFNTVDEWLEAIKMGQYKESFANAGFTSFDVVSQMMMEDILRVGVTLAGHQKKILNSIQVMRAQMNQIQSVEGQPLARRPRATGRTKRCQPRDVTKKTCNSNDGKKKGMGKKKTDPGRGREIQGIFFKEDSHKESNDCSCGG

[10] = biological target: Serine/threonine-protein kinase D2 ; PRKD2 ; Q9BZL6 (Homo sapiens, UniProt Q9BZL6)
[11] = biological target: Serine/threonine-protein kinase Chk1 ; CHEK1 ; O14757 (Homo sapiens, UniProt O14757)
[12] = biological target: Mitogen-activated protein kinase kinase kinase 3 ; MAP3K3 ; Q99759 (Homo sapiens, UniProt Q99759)
[13] = biological target: Protein kinase C iota type ; PRKCI ; P41743 (Homo sapiens, UniProt P41743)
[14] = biological target: Serine/threonine-protein kinase D1 ; PRKD1 ; Q15139 (Homo sapiens, UniProt Q15139)
[15] = biological target: Mitogen-activated protein kinase kinase kinase 6 ; MAP3K6 ; O95382 (Homo sapiens, UniProt O95382)
[16] = biological target: Serine/threonine-protein kinase N3 ; PKN3 ; Q6P5Z2 (Homo sapiens, UniProt Q6P5Z2)
[17] = read-out: BAY-1143572 (10 µM) / %Intensity relative to DMSO
[18] = read-out: BAY-1251152 (10 µM) / %Intensity relative to DMSO

Protein kinase C iota type ; PRKCI ; P41743, sequence (P41743 whole entry): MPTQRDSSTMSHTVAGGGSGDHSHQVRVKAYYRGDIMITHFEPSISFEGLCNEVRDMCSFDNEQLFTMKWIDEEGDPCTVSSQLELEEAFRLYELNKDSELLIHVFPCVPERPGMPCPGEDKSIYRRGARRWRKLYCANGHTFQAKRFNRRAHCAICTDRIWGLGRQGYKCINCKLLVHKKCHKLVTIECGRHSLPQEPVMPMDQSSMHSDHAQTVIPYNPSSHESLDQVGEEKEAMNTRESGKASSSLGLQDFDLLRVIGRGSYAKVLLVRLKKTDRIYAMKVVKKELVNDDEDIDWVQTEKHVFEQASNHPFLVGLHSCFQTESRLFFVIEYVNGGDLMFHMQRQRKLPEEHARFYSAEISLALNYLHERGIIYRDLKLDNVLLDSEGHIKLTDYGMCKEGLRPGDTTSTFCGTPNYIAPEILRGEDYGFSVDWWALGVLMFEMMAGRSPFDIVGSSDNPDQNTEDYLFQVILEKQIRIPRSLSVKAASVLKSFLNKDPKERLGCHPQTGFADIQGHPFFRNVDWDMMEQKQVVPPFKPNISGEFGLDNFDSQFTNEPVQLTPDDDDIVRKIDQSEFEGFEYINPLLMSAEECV
Serine/threonine-protein kinase N3 ; PKN3 ; Q6P5Z2, sequence (Q6P5Z2 whole entry, one chain of several): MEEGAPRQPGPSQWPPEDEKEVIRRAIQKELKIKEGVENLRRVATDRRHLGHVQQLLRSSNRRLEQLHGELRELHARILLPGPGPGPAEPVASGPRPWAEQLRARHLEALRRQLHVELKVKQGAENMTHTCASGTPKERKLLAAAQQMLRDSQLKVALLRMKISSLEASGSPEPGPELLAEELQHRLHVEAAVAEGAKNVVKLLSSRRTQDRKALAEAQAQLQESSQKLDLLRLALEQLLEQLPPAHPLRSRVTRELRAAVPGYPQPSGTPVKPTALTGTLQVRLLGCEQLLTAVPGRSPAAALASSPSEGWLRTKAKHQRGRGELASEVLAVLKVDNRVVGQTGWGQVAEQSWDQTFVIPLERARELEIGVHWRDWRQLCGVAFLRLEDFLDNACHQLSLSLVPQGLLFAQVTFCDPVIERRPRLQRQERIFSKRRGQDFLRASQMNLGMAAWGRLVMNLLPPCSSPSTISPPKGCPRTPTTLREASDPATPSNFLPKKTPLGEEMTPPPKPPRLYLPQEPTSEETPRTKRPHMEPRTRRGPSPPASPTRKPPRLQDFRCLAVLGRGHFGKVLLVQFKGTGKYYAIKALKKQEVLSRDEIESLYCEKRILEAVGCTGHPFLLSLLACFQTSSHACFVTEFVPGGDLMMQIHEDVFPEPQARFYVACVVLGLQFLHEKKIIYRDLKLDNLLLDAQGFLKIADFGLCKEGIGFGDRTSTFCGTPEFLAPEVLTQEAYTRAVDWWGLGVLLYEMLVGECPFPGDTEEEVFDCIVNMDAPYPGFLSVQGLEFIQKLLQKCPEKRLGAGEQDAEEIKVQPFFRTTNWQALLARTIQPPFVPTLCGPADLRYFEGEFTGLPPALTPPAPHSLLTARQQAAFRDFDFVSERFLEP
Mitogen-activated protein kinase 1 ; MAPK1 ; P28482, sequence (P28482 whole entry, canonical isoform): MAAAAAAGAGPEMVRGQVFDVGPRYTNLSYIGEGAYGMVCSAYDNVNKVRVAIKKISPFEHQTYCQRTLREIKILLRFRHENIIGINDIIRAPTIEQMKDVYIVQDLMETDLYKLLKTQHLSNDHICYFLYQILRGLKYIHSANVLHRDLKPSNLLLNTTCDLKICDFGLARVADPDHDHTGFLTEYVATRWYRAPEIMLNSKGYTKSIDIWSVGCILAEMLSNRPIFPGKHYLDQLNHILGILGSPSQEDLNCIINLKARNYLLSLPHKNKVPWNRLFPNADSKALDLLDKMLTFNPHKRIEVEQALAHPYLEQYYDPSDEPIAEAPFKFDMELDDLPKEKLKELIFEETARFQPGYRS
Isoform 3 of Mitogen-activated protein kinase 8 ; MAPK8 ; P45983-3, sequence (P45983 whole entry, canonical isoform): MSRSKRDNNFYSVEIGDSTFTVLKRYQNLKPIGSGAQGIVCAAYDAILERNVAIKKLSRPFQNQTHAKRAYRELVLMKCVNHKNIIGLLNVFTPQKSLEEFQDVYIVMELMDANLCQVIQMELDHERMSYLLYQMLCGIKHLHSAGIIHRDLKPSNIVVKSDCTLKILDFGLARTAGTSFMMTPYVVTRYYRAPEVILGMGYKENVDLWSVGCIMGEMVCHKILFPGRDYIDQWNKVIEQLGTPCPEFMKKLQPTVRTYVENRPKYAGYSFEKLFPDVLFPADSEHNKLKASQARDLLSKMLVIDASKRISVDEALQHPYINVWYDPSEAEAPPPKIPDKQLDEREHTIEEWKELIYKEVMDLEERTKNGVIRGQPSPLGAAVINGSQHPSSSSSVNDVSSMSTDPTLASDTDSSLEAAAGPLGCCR
Serine/threonine-protein kinase D1 ; PRKD1 ; Q15139, sequence (Q15139 whole entry, one chain of several): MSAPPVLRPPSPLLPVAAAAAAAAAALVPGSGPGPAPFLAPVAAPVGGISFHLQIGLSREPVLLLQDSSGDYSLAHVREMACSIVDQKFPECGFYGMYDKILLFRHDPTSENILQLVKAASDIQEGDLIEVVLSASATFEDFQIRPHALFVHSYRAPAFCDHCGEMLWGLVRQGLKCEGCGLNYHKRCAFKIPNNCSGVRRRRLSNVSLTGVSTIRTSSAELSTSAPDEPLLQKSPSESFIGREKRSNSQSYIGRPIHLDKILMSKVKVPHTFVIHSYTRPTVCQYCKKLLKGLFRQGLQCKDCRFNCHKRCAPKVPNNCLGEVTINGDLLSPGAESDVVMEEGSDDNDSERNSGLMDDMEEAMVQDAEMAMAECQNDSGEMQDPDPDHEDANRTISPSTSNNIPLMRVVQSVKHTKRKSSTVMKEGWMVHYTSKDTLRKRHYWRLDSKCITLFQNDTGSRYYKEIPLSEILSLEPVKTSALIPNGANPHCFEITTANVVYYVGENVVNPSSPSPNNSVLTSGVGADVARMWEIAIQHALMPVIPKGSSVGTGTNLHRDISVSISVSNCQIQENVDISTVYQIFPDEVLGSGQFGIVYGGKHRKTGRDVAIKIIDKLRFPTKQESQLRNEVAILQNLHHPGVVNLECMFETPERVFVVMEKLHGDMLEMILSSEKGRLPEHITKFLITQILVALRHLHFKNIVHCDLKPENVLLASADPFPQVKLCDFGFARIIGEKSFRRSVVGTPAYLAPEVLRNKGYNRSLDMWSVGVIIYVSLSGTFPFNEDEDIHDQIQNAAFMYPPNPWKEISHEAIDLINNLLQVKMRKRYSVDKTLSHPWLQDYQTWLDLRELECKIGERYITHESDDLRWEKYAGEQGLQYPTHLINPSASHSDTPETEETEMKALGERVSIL
Bone morphogenetic protein receptor type-1A ; BMPR1A ; P36894, sequence (P36894 whole entry, canonical isoform): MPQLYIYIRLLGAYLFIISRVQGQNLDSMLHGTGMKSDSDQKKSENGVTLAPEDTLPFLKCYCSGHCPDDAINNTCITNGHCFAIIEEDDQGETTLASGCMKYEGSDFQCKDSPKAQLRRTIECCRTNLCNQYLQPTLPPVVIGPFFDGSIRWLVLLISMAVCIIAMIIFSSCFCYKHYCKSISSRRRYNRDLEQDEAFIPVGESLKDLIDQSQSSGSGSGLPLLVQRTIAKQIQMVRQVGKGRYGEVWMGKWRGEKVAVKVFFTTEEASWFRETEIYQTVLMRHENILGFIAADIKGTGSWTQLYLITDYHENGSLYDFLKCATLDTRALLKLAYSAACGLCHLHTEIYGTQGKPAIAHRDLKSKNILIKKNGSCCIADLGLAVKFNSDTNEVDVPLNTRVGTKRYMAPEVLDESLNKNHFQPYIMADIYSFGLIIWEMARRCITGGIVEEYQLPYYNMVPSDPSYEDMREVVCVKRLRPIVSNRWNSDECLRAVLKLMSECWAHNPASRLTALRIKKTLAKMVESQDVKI
MAP/microtubule affinity-regulating kinase 3 ; MARK3 ; P27448, sequence (P27448 whole entry, one chain of several): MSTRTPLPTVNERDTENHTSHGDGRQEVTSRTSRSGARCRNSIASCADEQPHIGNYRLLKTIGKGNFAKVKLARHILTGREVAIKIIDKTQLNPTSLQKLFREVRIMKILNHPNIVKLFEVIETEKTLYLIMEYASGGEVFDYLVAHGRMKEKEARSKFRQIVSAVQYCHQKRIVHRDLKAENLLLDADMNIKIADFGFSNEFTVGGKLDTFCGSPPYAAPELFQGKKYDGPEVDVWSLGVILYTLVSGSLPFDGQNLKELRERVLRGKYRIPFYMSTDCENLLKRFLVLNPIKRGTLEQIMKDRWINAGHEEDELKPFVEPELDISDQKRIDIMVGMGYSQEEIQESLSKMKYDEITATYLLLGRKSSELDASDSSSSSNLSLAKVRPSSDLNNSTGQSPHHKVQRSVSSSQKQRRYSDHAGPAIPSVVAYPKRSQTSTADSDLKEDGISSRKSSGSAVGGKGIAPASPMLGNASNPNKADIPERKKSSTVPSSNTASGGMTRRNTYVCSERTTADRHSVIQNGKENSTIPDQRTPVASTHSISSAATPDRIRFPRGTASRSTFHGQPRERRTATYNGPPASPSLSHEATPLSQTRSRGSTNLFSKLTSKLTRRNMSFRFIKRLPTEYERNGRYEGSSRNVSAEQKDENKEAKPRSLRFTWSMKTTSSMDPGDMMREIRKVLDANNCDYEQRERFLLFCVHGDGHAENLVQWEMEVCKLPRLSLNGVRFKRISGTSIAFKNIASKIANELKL
Isoform 2 of Tyrosine-protein kinase Lyn ; LYN ; P07948-2, sequence (P07948 whole entry, canonical isoform): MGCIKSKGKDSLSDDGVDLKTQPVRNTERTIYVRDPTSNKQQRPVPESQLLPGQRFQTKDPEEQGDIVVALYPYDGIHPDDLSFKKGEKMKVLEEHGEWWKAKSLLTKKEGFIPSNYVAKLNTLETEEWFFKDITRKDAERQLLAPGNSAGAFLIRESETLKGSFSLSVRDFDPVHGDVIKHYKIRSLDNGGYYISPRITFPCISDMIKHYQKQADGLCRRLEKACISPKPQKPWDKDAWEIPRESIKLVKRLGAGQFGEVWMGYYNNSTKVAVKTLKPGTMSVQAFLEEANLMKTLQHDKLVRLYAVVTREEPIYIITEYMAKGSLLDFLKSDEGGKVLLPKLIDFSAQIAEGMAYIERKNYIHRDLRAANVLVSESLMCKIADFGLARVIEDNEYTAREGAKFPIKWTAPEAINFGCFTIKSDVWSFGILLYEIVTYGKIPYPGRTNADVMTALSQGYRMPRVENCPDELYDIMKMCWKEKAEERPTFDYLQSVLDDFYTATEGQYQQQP

remaining activity at 10 µM [1, 17]: 164%
remaining activity at 10 µM [2, 17]: 102%
remaining activity at 10 µM [3, 17]: 137%
remaining activity at 10 µM [4, 17]: 112%
remaining activity at 10 µM [5, 17]: 141%
remaining activity at 10 µM [6, 17]: 115%
remaining activity at 10 µM [7, 17]: 107%
remaining activity at 10 µM [8, 17]: 106%
remaining activity at 10 µM [9, 17]: 84.3%
remaining activity at 10 µM [10, 17]: 99.6%
remaining activity at 10 µM [11, 17]: 106%
remaining activity at 10 µM [12, 17]: 120%
remaining activity at 10 µM [13, 17]: 108%
remaining activity at 10 µM [14, 17]: 155%
remaining activity at 10 µM [15, 17]: 103%
remaining activity at 10 µM [16, 17]: 121%
Compound: COc1cc(F)ccc1-c1ncnc(Nc2cccc(C[S@](C)(=N)=O)c2)n1 [BAY-1143572]

remaining activity at 10 µM [1, 18]: 122%
remaining activity at 10 µM [2, 18]: 107%
remaining activity at 10 µM [3, 18]: 111%
remaining activity at 10 µM [4, 18]: 105%
remaining activity at 10 µM [5, 18]: 128%
remaining activity at 10 µM [6, 18]: 114%
remaining activity at 10 µM [7, 18]: 96.1%
remaining activity at 10 µM [8, 18]: 100%
remaining activity at 10 µM [9, 18]: 105%
remaining activity at 10 µM [10, 18]: 96.3%
remaining activity at 10 µM [11, 18]: 110%
remaining activity at 10 µM [12, 18]: 114%
remaining activity at 10 µM [13, 18]: 99.3%
remaining activity at 10 µM [14, 18]: 154%
remaining activity at 10 µM [15, 18]: 103%
remaining activity at 10 µM [16, 18]: 114%
Compound: COc1cc(F)ccc1-c1cc(Nc2cc(CS(C)(=N)=O)ccn2)ncc1F (centres unmarked) [BAY-1251152]

From paper doi:10.1101/2024.08.13.607785v1 (biorxiv, 2024)
